Laboratory results from patent publication US20220354957A1, “PEPTIDES TARGETING MACROPHAGES, AND CONJUGATES, COMPOSITIONS, AND USES THEREOF” (Twinpig Biolab, Inc., priority 2021, published 2022).

Experiments:
M2 macrophages = test: Apoptosis and caspase-3 expression in THP-1-derived macrophages; assay type: cell-based, human
Protocol: THP-1 cells were differentiated into macrophages by 24 h incubation with 100 nM PMA and polarized in M2 macrophages by incubation with 20 ng/ml of IL-4 and 20 ng/ml of IL-13 for 72 h. Polarized cells were treated with increasing concentrations of TAMpep and fragments of TAMpep (0.05-20 μM) for 24 h. Cell viability was analyzed using the CCK-8 assay: CCK-8 reagent (Enzo Life Sciences) was added to each well; incubation was continued for 2 hours, and absorbance was measured at 450 nm with a microplate reader (Molecular Devices).
THP-1 cells were seeded on cover glasses in 24-well plates and differentiated into M0, M1 and M2 macrophages. Cells were treated with 1 μM TAMpepK and MpepK for 1 h and incubated for 24 h after remove of peptides. Cells were washed, fixed with 4% paraformaldehyde for 10 minutes at […] and blocked with 0.1% normal goat serum for 1 hour. The cover glasses were then incubated with anti-caspase-3 antibody (1:50, rabbit polyclonal, Abcam) overnight at 4° C., and then washed and stained with Alexa 594-labelled goat anti-rabbit lgG (1:500, Invitrogen) at 37° C. for 1 hr. The cover glasses were mounted in Vectashield mounting medium (Vector Laboratories) with DAPI to visualize nuclei. Images photographed by fluorescence microscope (Leica).

TRAMP-C2 cells = test: Mouse model of prostate cancer (subcutaneous TRAMP-C2); assay type: in vivo
From the text: (§1) BALB/c and C57BL/6 (B6) wild-type mice were purchased from DBL. For the subcutaneous tumor model of melanoma and prostate cancer, CT26 (3×10^5 cells/mouse), B16F10 (1×10^6 cells/mouse) and TRAMP-C2 cells (1×10^6 cells/mouse) were mixed with Matrigel matrix (Corning) and inoculated subcutaneously into the right flank of the mice, and 4T1 (1×10^5 cells/mouse) cells mixed with Matrigel matrix and inoculated into a 4th mammary fat pad of the mice. TAMpepK, and MpepK peptides (200 nmol/kg) were injected intraperitoneally every 3 days, beginning at day 7 after tumor inoculation, and tumor volume was measured by electronic caliper. All tumor tissues were harvested after the end of the study and tumor weight was measured by an electronic balance.
Cells were harvested and lysed in PRO-PREP protein extraction solution (iNtRON, Bio Inc, Sungnam, Korea). Protein concentrations were measured with a Bradford Protein Assay Reagent kit (Bio-Rad, Richmond, CA, USA). Proteins were fractionated by 10% SDS-polyacrylamide gels electrophoresis (PAGE), and transferred onto polyvinylidene difluoride (PVDF) membranes. These were incubated with anti-arginase 1, anti-CD206, anti-caspase 3, anti-E-cadherin, anti-fibronectin, anti-PCNA, anti-TGF-β, anti-MMP9, and anti-β-actin Ab as primary antibodies. Goat anti-rabbit horseradish peroxidase-conjugated IgG or goat anti-mouse horseradish peroxidase-conjugated IgG (Abcam, Cambridge, Mass., USA) served as secondary antibodies. Protein bands were detected with a chemiluminescence reagent kit (SurModics).

[1] = test system: murine melanoma cells (B16F10 cell line); test: Mouse model of melanoma (subcutaneous B16F10); assay type: in vivo; details: vs PBS group
From the text: as §1

[2] = TRAMP-C2 in C57BL6J mice, i.p. every 3 days, vs PBS group
[3] = B16F10 in C57BL6J mice, 200 nmol/kg i.p. every 3 days

## CC[C@H](C)[C@H](NC(=O)[C@H](CC(C)C)NC(=O)[C@H](C)NC(=O)[C@@H]1CCCN1C(=O)[C@H](CC(C)C)NC(=O)CNC(=O)[C@@H](NC(=O)[C@@H](NC(=O)[C@H](CC(C)C)NC(=O)[C@@H](NC(C)=O)C(C)C)[C@@H](C)O)[C@@H](C)O)C(=O)N[C@@H](CO)C(=O)N[C@@H](Cc1c[nH]c2ccccc12)C(=O)N[C@H](C(=O)N[C@@H](CCCCN)C(=O)N[C@@H](CCCNC(=N)N)C(=O)N[C@@H](CCCCN)C(=O)N[C@@H](CCCNC(=N)N)C(=O)N[C@@H](CCC(N)=O)C(=O)N[C@@H](CCC(N)=O)C(=O)NCC(=O)NCC(=O)NCC(=O)NCC(=O)N[C@@H](CO)C(=O)N[C@H](CCCCN)C(=O)N[C@H](CC(C)C)C(=O)N[C@H](C)C(=O)N[C@H](CCCCN)C(=O)N[C@H](CC(C)C)C(=O)N[C@H](C)C(=O)N[C@H](CCCCN)C(=O)N[C@H](CCCCN)C(=O)N[C@H](CC(C)C)C(=O)N[C@H](C)C(=O)N[C@H](CCCCN)C(=O)N[C@H](CC(C)C)C(=O)N[C@H](C)C(=O)N[C@H](CCCCN)C(=O)O)[C@@H](C)CC [MpepK]
M2 macrophages; 1 μM, 1 h, then 24 h
  expression of caspase-3 in M2 macrophages compared to other subtype macrophages: increased
M2 macrophages; 0.01-10 μM
  apoptosis in M2 macrophages compared to M0 and M1 macrophages: induced apoptosis
TRAMP-C2 cells; [2]
  tumor volume: significantly reduced
  tumor weight: significantly reduced
TRAMP-C2 cells; TRAMP-C2 prostate cancer model
  body weight of mice: did not significantly change
TRAMP-C2 cells; prostate cancer model
  E-cadherin (epithelial cell marker) in tumor tissues: increased
  expression of PCNA (proliferative marker) in tumor tissues: reduced
  expression of TGF-β and MMP9 in tumor tissues: reduced
  vimentin and fibronectin (mesenchymal marker) in tumor tissues: reduced
[1]; [3]
  tumor volume: reduced
  tumor weight: reduced
[1]; B16F10 melanoma model
  survival rate: extended
